The results in this text go back to publication PMC12670317, “Targeted NAT10 Degradation by PROTAC NP1192 Suppresses Hypoxia-Adaptive Glycolysis and Reinvigorates CD8^+ Effector T‑Cell Function for Synergistic Cancer Immunotherapy” (ACS Central Science, 2025).

For series [1], the system named is C57BL/6J mice. Nature of the series: Acute toxicity in C57BL/6J mice. Conditions: mouse, in vivo, 1000 mg/kg. As for the experimental part:
(§1) Six-weeks old C57BL/6J male mice were purchased from Guangzhou Southern Medical University Experimental Animal Technology Development Co. The mice were administered intraperitoneally NP1192 (100, 500, 1000 mg/kg). The survival of mice was monitored for 14 days, consecutively.

Series [2] in a line: Acute toxicity in C57BL/6J mice. Conditions: male, mouse, in vivo, ip; C57BL/6J mice, intraperitoneal, 14 days survival. As for the experimental part: as §1
In series [3] the test system is HIF-1α. Description: HIF-1α protein level in SiHa cells, Western blot. Conditions: 36 h. The class given is cell-based, human. As for the experimental part: RIPA lysis buffer (Beyotime, China) mixed with 1% protease inhibitor (Sigma, US) was added to the cells, and a sample of total protein was obtained and then loaded onto an 8% or 12% polyacrylamide gel. The gel was placed in a buffer solution, and an electric current was applied. The separated proteins were subsequently transferred from the gel onto a PVDF membrane. Next, the membrane was blocked with 5% milk for 1 h to prevent nonspecific antibody binding. The membranes were subsequently incubated with anti-NAT10 (1:1000, Abcam, USA), anti-PD-L1 (1:1000, Proteintech, China), anti-HIF-1α (1:1000, Abmart, China), and anti-β-tubulin (1:1000, Proteintech, China) primary antibodies for 12 h. Afterward, the membrane was sequentially washed with 1× TBST and incubated for 1 h with an antimouse secondary antibody (1:6000, Elabscience, China) or antirabbit secondary antibody (1:6000, Elabscience, China). The target proteins were detected via chemiluminescence with a ChemiDoc MP Imaging System (Bio-Rad, US).

Series [4] deals with U14 cells. Nature of the series: Lactic acid, ATP and 2-NBDG uptake assays in U14 cells. The series is classed as cell-based, murine. The following applies: U14, 20 μM, 36 h. How it is done:
(§2) SiHa and U14 cells (2 × 10^5 cells per well) were plated in 6-well plates and cultured in RPMI 1640 medium or DMEM supplemented with 10% FBS and 1% penicillin–streptomycin. After cell adherence, 20 μM NP1192 or DMSO was added and incubated for 36 h, and the assays were performed according to the instruction manuals for the Lactate Assay Kit (Nanjing Jiancheng, China), ATP Assay Kit (Beyotime, China), and 2-NBDG reagent (GlpBio, US). All data analyses were performed via GraphPad Prism 9, and the data are presented as the means ± SEMs.

Series [5] relates to CD8+ TILs, M2 macrophages, MDSCs and Treg cells in U14 xenograft tumors. The following applies: Figure 7A.
Method: U14 cells (1 × 10^7 cells per mouse, approximately 100–150 μL of cell suspension) were implanted subcutaneously into the lateral lower dorsal surface of each mouse. The tumors were allowed to grow for 7 days, and the mice were then administered one of five treatments (group 1: U14 cells + DMSO; group 2: U14 cells + Remodelin; group 3: U14 cells + anti-PD-L1 antibody; group 4: U14 cells + NP1192; group 5: U14 cells + anti-PD-L1 antibody + NP1192). Each group of mice was assigned according to the principles of randomization and the blinding method. Tumors were measured every 2 days, and tumor volume was calculated via the following equation: volume = (width)^2 × length/2. Remodelin and NP1192 were injected into the peritumoral area every 2 days at a dose of 25 mg/kg, and the in vivo antimouse PD-L1 antibody (low endotoxin) was injected every 3 days at a dose of 2.5 mg/kg.
After the mice were euthanized, the tumor and peritumoral tissues were analyzed with an immunoflow kit (BioLegend, USA). The antibodies used for immunoflow cytometry included antihuman/mouse antibodies specific for CD11b-BV711, F4/80-AF647, CD206-PE, CD86-BV605, CD4-CD4-FITC IL-17-17-CY7/CY7, CD25-PE, FOXP3-AF647, CD4-BV605, CD45-PE/CY7, CD11b-BV711 and LY-6G/LY-6C-BV421 (BioLegend catalog no. 321239, RRID:AB_2860843). All data analyses were performed via GraphPad Prism 9, and the data are presented as the mean ± SEMs.
In series [6] the test system is SiHa cells. Description: Lactic acid, ATP and 2-NBDG uptake assays in SiHa cells. The series is classed as cell-based, human. Conditions: 20 μM, 36 h. How it is done:
as §2

For `N#Cc1ccc(-c2csc(N(CCCCCCC(=O)N3CCN(c4cccc5c4C(=O)N(C4CCC(=O)NC4=O)C5=O)CC3)N=C3CCCC3)n2)cc1` (stereo not drawn) [NP1192], the “tolerability in acute toxicity test” value in series [1] is reported as “well-tolerated”. Moreover, the median lethal dose (LD50) at 14 days in series [2] is > 1000 mg/kg. Besides, in series [3], the HIF-1α protein levels result is on record as “decreased HIF-1α protein levels”. For the same compound, the lactate levels entry in series [4] and in series [6] was “significantly decreased lactate levels” each time. Also, the “level of ATP production” value in series [4] is “increased markedly”. For the same compound, the “absorbtion rate (glucose analog 2-NBDG)” value in series [4] (Figure 4L, DMSO 9.57) is listed as 0.80; in series [6] (Figure 4K, DMSO 3.21), 1.94. The Treg gate in series [5] (CD4+CD25+FOXP3+) was found to be 0.00%. In series [5] (CD11b+F4/80+CD206+), the “M2 (M2 macrophages gate)” value was 8.10%. Further, the MDSC gate in series [5] (CD11b+LY-6G+) was 4.96%. In addition, the “CD8+ (CD8+ TILs gate)” value in series [5] (tumors after treatment) came to 4.30%.
